Results published in patent US20030220300A1, “Reduction of hair growth” (priority 2002, published 2003).

Experiments:
[1] = system: Human hair follicles in growth phase (anagen); test: Human hair follicle growth assay; type: cell-based; details: for % Reduction of human hair follicle growth / Hair follicle length increase (mm) Treated: day 0 to day 7 (Table II)
Source text: Human Hair Follicle Growth Assay
Tissue source—Human skin was obtained from a plastic surgeon as a by-product of face-lift procedures. Immediately after removal, the skin was placed in Williams E medium containing antibiotics and refrigerated. The Williams E medium is a commercially obtained medium which has been formulated with essential nutrients for maintaining viability of tissues or cells such as of hair follicle in an in-vitro environment.
Hair Follicle Isolation and Culture—Human hair follicles in growth phase (anagen) were isolated from face-lift tissue (obtained from plastic surgeons) under dissecting scope using a scalpel and watchmakers forceps. The skin was sliced into thin strips exposing 2-3 rows of follicles that could readily be dissected. Follicles were placed into 0.5 ml William's E medium (Life Technologies, Gaithersburg, Md.) supplemented with 2 mM L-glutamine, 10 μg/ml insulin, 10 ng/ml hydrocortisone, 100 units of penicillin, 0.1 mg/ml streptomycin and 0.25 μg/ml amphotericin B. The follicles were incubated in 24-well plates (1 follicle/well) at 37° C. in an atmosphere of 5% CO2 and 95% air. Thiazolidinediones are dissolved into dimethyl sulfoxide as 100-fold stock solution. The control hair follicles were treated with dimethyl sulfoxide without thiazolidinedione. The follicles were photographed in the 24-well plates under the dissecting scope at a power of 10×. Typically, image recordings were made on day 0 (day follicles were placed in culture), and again on day 7. The length of Hair follicle was assessed using an image analysis software system (Jasc Image Robot). The growth of hair fiber was calculated by the subtracting the follicle length on day 0 from that determined on day 7.

[2] = system: Golden Syrian hamster flank organs (hair growth); test: Golden Syrian hamster assay (hair mass assay); type: in vivo; details: topical, three weeks
Source text: Golden Syrian Hamster Assay
Male intact Golden Syrian hamsters are considered acceptable models for human beard hair growth in that they display oval shaped flank organs, one on each side, each about 8 mm. in major diameter. These organs produce fine light colored hair typical of the animal pelage found on the body. In response to androgens the flank organs produce dark coarse hair similar to male human beard hair. To evaluate the effectiveness of a composition in reducing hair growth, the flank organs of each of a group of hamsters are depilated by applying a thioglycolate based chemical depilatory (Surgex) and/or shaved. To one organ of each animal 10 μl. of vehicle alone once a day is applied, while to the other organ of each animal an equal amount of vehicle containing the ligand under evaluation is applied. After three weeks of topical applications (one application per day for five days a week), the flank organs are shaved and the amount of recovered hair (hair mass) from each is weighed. Percent-reduction of hair growth is calculated by subtracting the hair mass (mg) value of the test compound treated side from the hair mass value of the vehicle treated side; the delta value obtained is then divided by the hair mass value of the vehicle treated side, and the resultant number is multiplied by 100.
The above-described assay will be referred to herein as the “Golden Syrian hamster” assay or “hair mass” assay. Preferred compositions provide a reduction in hair growth of at least about 15% and more preferably at least about 35%, when tested in the Golden Syrian hamster assay.

O=C1NC(=S)SC1=Cc1cc([N+](=O)[O-])ccc1Sc1ccccc1 [5-(5-nitro-2-phenylsulfanyl-benzylidene)-2-thioxo-thiazolidin-4-one]
% Reduction ([1]; 0.1 μM (Table VI)): 66.9 ± 15.2%
Hair follicle length increase (mm) ([1]; 0.1 μM (Table VI)): 0.37 ± 0.17 mm
% Reduction ([1]; 0.5 μM (Table VI)): 85.7 ± 15.2%
Hair follicle length increase (mm) ([1]; 0.5 μM (Table VI)): 0.16 ± 0.17 mm
% Reduction ([1]; 1.0 μM (Table VI)): 93.7 ± 7.1%
Hair follicle length increase (mm) ([1]; 1.0 μM (Table VI)): 0.07 ± 0.08 mm
% Reduction of human hair follicle growth ([1]; 10 μM): 94.6 ± 3.9%
Hair follicle length increase (mm) Treated ([1]; 10 μM): 0.11 ± 0.08 mm
Effect on human hair growth (in words) ([1]; human hair follicle growth assay, summary of Table II): can reduce human hair growth

CC1(COc2ccc(CC3SC(=O)NC3=O)cc2)CCCCC1 (centres unmarked) [Ciglitazone, ciglitazone]
% Reduction of hamster hair mass ([2]; dose 1.3%, vehicle A): 22.7 ± 5.8%
Treated (mg) hair mass ([2]; dose 1.3%, vehicle A): 2.78 ± 0.23 mg
% Reduction of hamster hair mass ([2]; dose 1.3%, vehicle A, listed as ciglitazone): 22.7%
% Reduction ([1]; 3 μM (Table III)): 38.2 ± 23.0%
Hair follicle length increase (mm) ([1]; 3 μM (Table III)): 1.34 ± 0.5 mm
% Reduction ([1]; 6 μM (Table III)): 75.1 ± 13.8%
Hair follicle length increase (mm) ([1]; 6 μM (Table III)): 0.54 ± 0.3 mm
% Reduction ([1]; 9 μM (Table III)): 90.8 ± 9.2%
Hair follicle length increase (mm) ([1]; 9 μM (Table III)): 0.2 ± 0.2 mm
% Reduction of human hair follicle growth ([1]; 20 μM): 87.5 ± 15.6%
Hair follicle length increase (mm) Treated ([1]; 20 μM): 0.19 ± 0.24 mm

CCc1ccc(CCOc2ccc(CC3SC(=O)NC3=O)cc2)nc1 (centres unmarked) [Pioglitazone, pioglitazone]
% Reduction of hamster hair mass ([2]; dose 5%, vehicle B): 47.7 ± 4.1%
Treated (mg) hair mass ([2]; dose 5%, vehicle B): 1.32 ± 0.06 mg
% Reduction of hamster hair mass ([2]; dose 5%, vehicle B, listed as pioglitazone): 47.7%
% Reduction ([1]; 15 μM (Table IV)): 30.2 ± 19.8%
Hair follicle length increase (mm) ([1]; 15 μM (Table IV)): 0.67 ± 0.19 mm
% Reduction ([1]; 30 μM (Table IV)): 76.0 ± 16.7%
Hair follicle length increase (mm) ([1]; 30 μM (Table IV)): 0.23 ± 0.16 mm
% Reduction ([1]; 45 μM (Table IV)): 89.6 ± 14.6%
Hair follicle length increase (mm) ([1]; 45 μM (Table IV)): 0.1 ± 0.14 mm
% Reduction of human hair follicle growth ([1]; 50 μM): 86.7 ± 6.2%
Hair follicle length increase (mm) Treated ([1]; 50 μM): 0.15 ± 0.07 mm

CN(CCOc1ccc(CC2SC(=O)NC2=O)cc1)c1ccccn1 (centres unmarked) [Rosiglitazone, rosiglitazone]
% Reduction of hamster hair mass ([2]; dose 10%, vehicle A): 40.0 ± 5.0%
Treated (mg) hair mass ([2]; dose 10%, vehicle A): 1.78 ± 0.71 mg
% Reduction of hamster hair mass ([2]; dose 10%, vehicle A, listed as rosiglitazone): 40%
% Reduction ([1]; 20 μM (Table V)): 34.8 ± 20.6%
Hair follicle length increase (mm) ([1]; 20 μM (Table V)): 0.92 ± 0.29 mm
% Reduction ([1]; 40 μM (Table V)): 47.5 ± 10.6%
Hair follicle length increase (mm) ([1]; 40 μM (Table V)): 0.74 ± 0.15 mm
% Reduction ([1]; 60 μM (Table V)): 63.1 ± 14.1%
Hair follicle length increase (mm) ([1]; 60 μM (Table V)): 0.52 ± 0.2 mm
% Reduction of human hair follicle growth ([1]; 100 μM): 75.2 ± 16.5%
Hair follicle length increase (mm) Treated ([1]; 100 μM): 0.24 ± 0.16 mm

Cc1c(C)c2c(c(C)c1O)CCC(C)(COc1ccc(CC3SC(=O)NC3=O)cc1)O2 (centres unmarked) [Troglitazone, troglitazone]
% Reduction of human hair follicle growth ([1]; 100 μM): 91.5 ± 6.2%
Hair follicle length increase (mm) Treated ([1]; 100 μM): 0.11 ± 0.08 mm
